Test results: patent publication US20070254907A1, “COMPOSITIONS AND METHODS FOR CONTROLLING INFESTATION” (HATCHTECH PTY LTD, priority 2003, published 2007)
Where “and” joins values, the source holds several entries; their conditions need not be identical. Equal entries are not always repeated. Where two headings read alike, the source gives them in different places.

Tests used:
Plutella xylostella eggs = assay: whole plant or invertebrate; format: in vivo
Method: The ovicidal efficacy of 2-acetyl-1-tetralone was also tested against Plutella eggs.

lice eggs = assay: whole plant or invertebrate; format: in vivo; details: for inhibition at 10000 µM: Pediculus humanus, read-out: Ovicidal activity %; for Activity class 0 = inactive 1 = low 2 = med 3 = high: listed as of 10 mM; for H (number of eggs successfully hatched) / Ph (number of eggs partly hatched): per replicate, concentration not given
[1] = system: Lice (L) and Plutella (P) eggs; assay: whole plant or invertebrate; details: read-out: Ovicidal activity %
[2] = system: Lice (L) and Plutella (P) eggs; details: Lice (L) and Plutella (P)
[3] = system: Helicoverpa armigera eggs; assay: Egg hatching of Helicoverpa armigera; details: for Number hatched / Number unhatched / % Inhibition: Table 13; for % Inhibition: relative to the control (100% MeOH)
head lice eggs = assay: Head lice egg hatching with formulated compound; format: in vivo; details: 20 mM formulation, 10 minutes exposure, n=10 eggs
Method: Gravid female lice were permitted to lay eggs. The eggs were counted, inspected under a light microscope and all eggs that appeared undamaged were allocated to one of two treatment groups. One group was exposed to 5′-dimethyl-2,2′-dipyridyl in a formulation, while the second group was exposed to the formulation only. The protocol was as follows:
Treatments: 5'-dimethyl-2,2'dipyridyl (20mM) n=10
Vehicle control only n=10
Exposure time: 10 minutes
Wash time: 1 minute @˜37° C.
Incubation: All eggs were placed at 31° C. in a humid incubator and monitored for signs of development specifically of the eye and subsequent hatching, see Table 21.

[4] = Plutella xylostella, read-out: Ovicidal activity %
[5] = Plutella xylostella, Plutella (P), 10 mM, read-out: Ovicidal activity %
[6] = Plutella (P), listed as of 1 mM
[7] = Plutella (P), listed as of 10 mM
[8] = Table 17, eggs laid on cloth, 1 mM in 1% diethoxyglycol
[9] = Table 14, 10 mM, dipped approximately 2 seconds, eggs on fine cloth
[10] = Table 10, eggs laid on cloth, 1 mM
[11] = Table 10, eggs laid on cloth, 10 mM
[12] = Table 11, eggs laid on parafilm, 1 mM
[13] = Table 11, eggs laid on parafilm, 10 mM

N[C@@H]1CCCC[C@H]1O (relative stereo) [Trans-2-aminocyclohexanol]
inhibition at 10000 µM (Plutella xylostella eggs; [4]): 0%

Cc1cc(C)cc(C(=O)CC(=O)c2cc(C)cc(C)c2)c1 [1,3-Bis-(3,5-dimethyl-phenyl)-propane-1,3-dione]
inhibition at 10000 µM (Plutella xylostella eggs; [5]): 0% | Logit calc pLD50 (Plutella xylostella eggs; in vivo): 0.7 | Pref pLD50 (Plutella xylostella eggs; in vivo): <2

COc1ccc(C(=O)CC(=O)c2ccc(OC)cc2)cc1 [1,3-Bis-(4-methoxy-phenyl)-propane-1,3-dione]
inhibition at 10000 µM (Plutella xylostella eggs; [5]): 0% | Logit calc pLD50 (Plutella xylostella eggs; in vivo): 0.7 | Pref pLD50 (Plutella xylostella eggs; in vivo): <2

CC(C)(C)c1ccc(C(=O)CC(=O)c2ccc(C(C)(C)C)cc2)cc1 [1,3-Bis-(4-tert-butyl-phenyl)-propane-1,3-dione]
inhibition at 10000 µM (Plutella xylostella eggs; [5]): 0% | Logit calc pLD50 (Plutella xylostella eggs; in vivo): 0.7 | Pref pLD50 (Plutella xylostella eggs; in vivo): <2

O=C(CC(=O)c1cccnc1)c1cccnc1 [1,3-dipyridin-3-yl-propane-1,3-dione]
inhibition at 10000 µM (Plutella xylostella eggs; [5]): 0% | Logit calc pLD50 (Plutella xylostella eggs; in vivo): 0.7 | Pref pLD50 (Plutella xylostella eggs; in vivo): <2

O=C(CC(=O)c1ccc(Cl)cc1)c1ccccc1 [1-(4-Chloro-phenyl)-3-phenyl-propane-1,3-dione]
inhibition at 10000 µM (lice eggs; Lice (L), 10 mM): 0%

O=C(CC(=O)c1cc(Cl)ccc1O)c1ccccc1 [1-(5-Chloro-2-hydroxy-phenyl)-3-phenyl-propane-1,3-dione]
inhibition at 10000 µM [1]: 0%

c1ccc(Nc2ccccn2)nc1 [2,2-dipyridylamine]
Ovicidal activity % (Plutella xylostella eggs; Plutella (P), 1 mM): 0.00% | Ovicidal activity % (Plutella xylostella eggs; Plutella (P), 10 mM): 100% | Activity class 0 = inactive 1 = low 2 = med 3 = high (Plutella xylostella eggs; [6]): 0 (A pLD50 value less than 2 is considered inactive (Class 0)) | Activity class 0 = inactive 1 = low 2 = med 3 = high (Plutella xylostella eggs; [7]): 1 (a pLD50 value between 2 and 3 is considered weakly active (Class 1))

COC(=O)c1ccc(-c2ccc(C(=O)OC)cn2)nc1 [2,2′ Bipyridinyl-5,5′-dicarboxylic acid dimethyl ester]
Activity class 0 = inactive 1 = low 2 = med 3 = high (lice eggs; Lice (L)): 0 (A pLD50 value less than 2 is considered inactive (Class 0)) | inhibition at 10000 µM (lice eggs; Lice (L), 10 mM): 0%

c1ccc(-c2cccc(-c3ccccn3)n2)nc1 [2,2′,6,2″-terpyridine]
inhibition of Plutella egg hatching (Plutella xylostella eggs; 1 mM, 1% diethoxyglycol): complete inhibition | Ovicidal activity % (Plutella xylostella eggs; Plutella (P), 1 mM): 100% | Activity class 0 = inactive 1 = low 2 = med 3 = high (Plutella xylostella eggs; [6]): 3 (a pLD50 greater than 4 is considered strongly active (Class 3)) | Number hatched (Plutella xylostella eggs; [8]): 0 | Number unhatched (Plutella xylostella eggs; [8]): 46 | % Inhibition (Plutella xylostella eggs; Table 17, 1 mM, relative to control (1% diethoxyglycol)): 100% | Ovicidal activity % (lice eggs; Lice (L), 10 mM): 0.00% | Activity class 0 = inactive 1 = low 2 = med 3 = high (lice eggs; Lice (L)): 0 (A pLD50 value less than 2 is considered inactive (Class 0))

Cc1nc(-c2nc(C)c(C)[nH]2)[nH]c1C [2,2′-Bis(4,5-dimethylimidazole)]
Ovicidal activity % (lice eggs; Lice (L), 10 mM): 0.00% | Activity class 0 = inactive 1 = low 2 = med 3 = high (lice eggs; Lice (L)): 0 (A pLD50 value less than 2 is considered inactive (Class 0))

c1ccc2nc(-c3ccc4ccccc4n3)ccc2c1 [2,2′-biquinoline]
inhibition at 10000 µM [1]: 0%

c1ccc(-c2ccccn2)nc1 [2,2′-dipyridyl]
lice egg hatching (lice eggs; all time points examined (24-120 hr post egg laying)): completely inhibited | H (number of eggs successfully hatched) (lice eggs; treated 24 hr post egg laying): 0 | Ph (number of eggs partly hatched) (lice eggs; treated 24 hr post egg laying): 0 | H (number of eggs successfully hatched) (lice eggs; treated 48 hr post egg laying): 0 | Ph (number of eggs partly hatched) (lice eggs; treated 48 hr post egg laying): 0 | H (number of eggs successfully hatched) (lice eggs; treated 72 hr post egg laying): 0 | Ph (number of eggs partly hatched) (lice eggs; treated 72 hr post egg laying): 0 | H (number of eggs successfully hatched) (lice eggs; treated 96 hr post egg laying): 1 and 0 (2×) | Ph (number of eggs partly hatched) (lice eggs; treated 96 hr post egg laying): 0 | H (number of eggs successfully hatched) (lice eggs; treated 120 hr post egg laying): 0 | Ph (number of eggs partly hatched) (lice eggs; treated 120 hr post egg laying): 0 | Ovicidal activity % ([2]; 10 mM): 100.00% | Activity class 0 = inactive 1 = low 2 = med 3 = high ([2]; listed as of 10 mM): 1 (a pLD50 value between 2 and 3 is considered weakly active (Class 1))

c1ccc(-c2ccc3ccccc3n2)nc1 [2-(2-pyridinyl)quinoline]
effect on egg hatching of Plutella xylostella (words) (Plutella xylostella eggs; 10 mM): able to inhibit egg hatching | inhibition at 10000 µM (Plutella xylostella eggs; [5]): 100% | inhibition at 10000 µM (Plutella xylostella eggs; Plutella xylostella, Table 14, 10 mM, relative to control (100% ETOH), read-out: % Inhibition): 96% | Number hatched (Plutella xylostella eggs; [9]): 2 | Number unhatched (Plutella xylostella eggs; [9]): 56 | Logit calc pLD50 (Plutella xylostella eggs; in vivo): 3.3 | Pref pLD50 (Plutella xylostella eggs; in vivo): >2

CC(=O)C1CCCCC1=O (centres unmarked) [2-Acetylcyclohexanone]
inhibition at 10000 µM (Plutella xylostella eggs; [5]): 0% | Logit calc pLD50 (Plutella xylostella eggs; in vivo): 0.7 | Pref pLD50 (Plutella xylostella eggs; in vivo): <2

NCC(O)c1ccccc1 (centres unmarked) [2-Amino-1-phenyl ethanol]
Ovicidal activity % (Plutella xylostella eggs; in vivo): 0.00%

Cc1ccccn1 [2-Picoline]
Activity class 0 = inactive 1 = low 2 = med 3 = high (lice eggs; Lice (L)): 0 (A pLD50 value less than 2 is considered inactive (Class 0)) | inhibition at 10000 µM (lice eggs; Lice (L), 10 mM): 0%

c1ccc(Cc2ccccn2)cc1 [2-benzyl-pyridine]
inhibition at 10000 µM [1]: 0%

O=C(CC(=O)C(F)(F)F)c1ccccc1 [4,4,4-Trifluoro-1-phenyl-butane-1,3-dione]
inhibition at 10000 µM [1]: 0%

Cc1ccnc(-c2cc(C)ccn2)c1 [4,4′-dimethyl-2,2′-dipyridyl]
effect on egg hatching of Plutella xylostella (words) (Plutella xylostella eggs; 10 and 1 mM): significantly inhibit egg hatching | Ovicidal activity % (Plutella xylostella eggs; Plutella (P), 0.1 mM): 65.00% | Ovicidal activity % (Plutella xylostella eggs; Plutella (P), 1 mM): 100.00% | Ovicidal activity % (Plutella xylostella eggs; Plutella (P), 10 mM): 100.00% | Activity class 0 = inactive 1 = low 2 = med 3 = high (Plutella xylostella eggs; [6]): 3 (a pLD50 greater than 4 is considered strongly active (Class 3)) | Number hatched (Plutella xylostella eggs; [10]): 0 | Number unhatched (Plutella xylostella eggs; [10]): 30 | % Inhibition (Plutella xylostella eggs; Table 10, eggs laid on cloth, 1 mM, relative to controls): 100% | Number hatched (Plutella xylostella eggs; [11]): 0 | Number unhatched (Plutella xylostella eggs; [11]): 36 | % Inhibition (Plutella xylostella eggs; Table 10, eggs laid on cloth, 10 mM, relative to controls): 100% | Number hatched (Plutella xylostella eggs; [12]): 10 | Number unhatched (Plutella xylostella eggs; [12]): 107 | % Inhibition (Plutella xylostella eggs; Table 11, eggs laid on parafilm, 1 mM, relative to controls): 91% | Number hatched (Plutella xylostella eggs; [13]): 0 | Number unhatched (Plutella xylostella eggs; [13]): 139 | % Inhibition (Plutella xylostella eggs; Table 11, eggs laid on parafilm, 10 mM, relative to controls): 100% | effect on egg hatching of Helicoverpa armigera (words) ([3]; 1 mM): significant inhibition of egg hatching | effect on egg hatching of Helicoverpa armigera (words) ([3]; 10 mM): significant inhibition of egg hatching | Number hatched ([3]; 1 mM): 23 | Number unhatched ([3]; 1 mM): 29 | % Inhibition ([3]; 1 mM): 66% | Number hatched ([3]; 10 mM): 8 | Number unhatched ([3]; 10 mM): 43 | % Inhibition ([3]; 10 mM): 84%

c1cnc2ccc3ncccc3c2c1 [4,7-phenanthroline]
inhibition at 10000 µM [1]: 0%

c1ccc(-c2cc(N3CCOCC3)c3ccccc3n2)nc1 [4-Morpholin-4-yl-2-pyridin-2-yl-quinoline]
inhibition at 10000 µM [1]: 0%

CC(=O)NO [Acetohydroxamic acid]
inhibition at 10000 µM (Plutella xylostella eggs; [5]): 0% | Logit calc pLD50 (Plutella xylostella eggs; in vivo): 0.7 | Pref pLD50 (Plutella xylostella eggs; in vivo): <2

O=C(NO)c1ccccc1 [Benzohydroxaminic acid]
Ovicidal activity % (Plutella xylostella eggs; Plutella (P), 10 mM): 0.00% | Activity class 0 = inactive 1 = low 2 = med 3 = high (Plutella xylostella eggs; [7]): 0 (A pLD50 value less than 2 is considered inactive (Class 0))

CC(=O)CC(=O)c1ccccc1 [Benzoylacetone]
inhibition at 1000 µM (Plutella xylostella eggs; Plutella xylostella, Plutella (P), 1 mM, read-out: Ovicidal activity %): 0% | inhibition at 10000 µM (Plutella xylostella eggs; [5]): 90%

CCCC(N)CO [D-L-2-Amino-1-pentanol]
Ovicidal activity % (Plutella xylostella eggs; Plutella (P), 10 mM): 0.00% | Activity class 0 = inactive 1 = low 2 = med 3 = high (Plutella xylostella eggs; [7]): 0 (A pLD50 value less than 2 is considered inactive (Class 0)) | Logit calc pLD50 (Plutella xylostella eggs; in vivo): 0.7 | Pref pLD50 (Plutella xylostella eggs; in vivo): <2

c1ccc(CNCc2ccccn2)nc1 [Di(2-picolyl) amine]
Activity class 0 = inactive 1 = low 2 = med 3 = high (lice eggs; Lice (L)): 0 (A pLD50 value less than 2 is considered inactive (Class 0)) | inhibition at 10000 µM (lice eggs): 0%

O=C(CC(=O)c1ccccc1)c1ccccc1 [Dibenzoyl methane]
inhibition at 10000 µM (Plutella xylostella eggs; [4]): 90%

CCOC(=O)CNC(C)=O [Ethyl-acetaimidoacetate]
Ovicidal activity % (Plutella xylostella eggs; Plutella (P), 10 mM): 0.00% | Activity class 0 = inactive 1 = low 2 = med 3 = high (Plutella xylostella eggs; [7]): 0 (A pLD50 value less than 2 is considered inactive (Class 0))

COC(=O)CN [Glycine methyl ester]
inhibition at 10000 µM (Plutella xylostella eggs; [5]): 0% | Logit calc pLD50 (Plutella xylostella eggs; in vivo): 0.7 | Pref pLD50 (Plutella xylostella eggs; in vivo): <2

Cc1ccc(-c2ccc(C)cn2)nc1 [Ha44]
Stage of development: number of eggs with eye development (head lice eggs; Day 1): 1 eye development | Stage of development: number of eggs with no eye dev. (head lice eggs; Day 1): 9 no eye dev. | Stage of development: number of eggs hatched (head lice eggs; Day 4): 1 hatched | Stage of development: number of eggs with eye development (head lice eggs; Day 4): 1 eye development | Stage of development: number of eggs with no eye dev. (head lice eggs; Day 4): 8 no eye dev. | Stage of development: number of eggs with eye development (head lice eggs; Day 5): 1 eye development | Stage of development: number of eggs with no eye dev. (head lice eggs; Day 5): 8 no eye dev. | Stage of development: number of eggs with eye development (head lice eggs; Day 6): 1 eye development | Stage of development: number of eggs with no eye dev. (head lice eggs; Day 6): 8 no eye dev. | Stage of development: number of eggs with eye development (head lice eggs; Day 7): 1 eye development | Stage of development: number of eggs with no eye dev. (head lice eggs; Day 7): 8 no eye dev. | Stage of development: number of eggs with eye development (head lice eggs; Day 12): 1 eye development | Stage of development: number of eggs with no eye dev. (head lice eggs; Day 12): 8 no eye dev.
